Data on nine compounds can be found in ChEMBL document CHEMBL4033701, “Cytotoxic triterpene diglycosides from the sea cucumber Stichopus horrens” (Bioorg Med Chem Lett, 2017).

In general, IC50 refers to the concentration that inhibits the measured activity by half.

What all share (format): functional, cell-based
Test [1] deals with LNCaP. Briefly: Cytotoxicity against human LNCAP cells after 72 hrs by SRB assay.
In test [2] the test system is MCF7. Briefly: Cytotoxicity against human MCF7 cells after 72 hrs by SRB assay. As to conditions: MCF7, 72 h. (The SRB assay estimates cell density from bound dye.)
The test system of test [3] is KB. Briefly: Cytotoxicity against human KB cells after 72 hrs by SRB assay.
For test [4], the system named is HepG2. Kind of test: Cytotoxicity against human HepG2 cells after 72 hrs by SRB assay. As to conditions: HepG2, 72 h.
Test [5] deals with SK-MEL-2. Briefly: Cytotoxicity against human SK-MEL-2 cells after 72 hrs by SRB assay. As to conditions: SK-MEL-2, 72 h.

On to `CC(=O)O[C@@H](CC(C)C)C[C@]1(C)OC(=O)[C@]23CC[C@H]4C(=CC[C@H]5C(C)(C)[C@@H](O[C@@H]6OC[C@@H](O)[C@H](O)[C@H]6O[C@@H]6O[C@H](CO)[C@@H](O)[C@H](O)[C@H]6O)CC[C@]45C)[C@]2(C)CC[C@@H]31`, for which the concentration for half-maximal inhibition (IC50) in test [1] worked out at 7.6 µM; in test [2] it was 6.36 µM; in test [3] it was 8.86 µM; in test [4], 5.28 µM; in test [5], 5.77 µM.

In the case of `Cc1c2ccncc2c(C)c2c1[nH]c1ccccc12` [ELLIPTECINE], the results for the IC50 in test [1], in test [3] and in test [5] were 1.95 µM, 1.79 µM and 1.91 µM, respectively.

Consider `CC(=O)O[C@@H](CC(C)C)C[C@]1(C)OC(=O)[C@]23CC[C@H]4C(=CC[C@H]5C(C)(C)[C@@H](O[C@@H]6OC[C@@H](O)[C@H](O)[C@H]6O[C@@H]6OC[C@@H](O)[C@H](O)[C@H]6O)CC[C@]45C)[C@]2(C)CC[C@@H]31`, for which the IC50 in test [1] amounted to 2.7 µM; in test [2], 2.08 µM; in test [3], 3.11 µM; in test [4] it was 2.04 µM; in test [5], 2.21 µM.

Turning to `C=C(C)CCC(O)[C@]1(C)OC(=O)[C@]23CC[C@H]4C(=CC[C@H]5C(C)(C)[C@@H](O[C@@H]6OC[C@@H](O)[C@H](O)[C@H]6O[C@@H]6O[C@H](CO)[C@@H](OS(=O)(=O)O)[C@H](O)[C@H]6O)CC[C@]45C)[C@]2(C)CC[C@H]13` (stereo partly drawn), the IC50 in test [1] came to 51.5 µM; in test [2], 59.5 µM; in test [3], 45.4 µM; in test [4], 55.3 µM; in test [5] it was 67.2 µM.

Regarding `C=C(C)CCC(O)[C@]1(C)OC(=O)[C@]23CC[C@H]4C(=CC[C@H]5C(C)(C)[C@@H](O[C@@H]6OC[C@@H](O)[C@H](O)[C@H]6O[C@@H]6O[C@H](CO)[C@@H](O)[C@H](O)[C@H]6O)CC[C@]45C)[C@]2(C)CC[C@H]13` (stereo partly drawn), the IC50 in test [1] was determined as 51.6 µM; in test [2], 41.9 µM; in test [3], 33.5 µM; in test [4], 37.9 µM; in test [5] it was 43.5 µM.

Regarding `CC(C)C[C@H](O)C[C@]1(C)OC(=O)[C@]23CC[C@H]4C(=CC[C@H]5C(C)(C)[C@@H](O[C@@H]6OC[C@@H](O)[C@H](O)[C@H]6O[C@@H]6OC[C@@H](O)[C@H](O)[C@H]6O)CC[C@]45C)[C@]2(C)CC[C@@H]31`, the IC50 in test [1] was determined as 59.3 µM; in test [2], 52.2 µM; in test [3] it was 48.4 µM; in test [4], 53.8 µM; in test [5], 41.9 µM.

For `C=C(C)C[C@@H](C[C@]1(C)OC(=O)[C@]23CC[C@H]4C(=CC[C@H]5C(C)(C)[C@@H](O[C@@H]6OC[C@@H](O)[C@H](O)[C@H]6O[C@@H]6O[C@H](CO)[C@@H](O)[C@H](O)[C@H]6O)CC[C@]45C)[C@]2(C)CC[C@@H]31)OC(C)=O`, the IC50 in test [1] is 10.1 µM; in test [2], 7.25 µM; in test [3], 11 µM; in test [4], 7.03 µM; in test [5], 10.8 µM.

Turning to `CC(=O)O[C@@H](CC(C)C)C[C@]1(C)OC(=O)[C@]23CC[C@H]4C(=CC[C@H]5C(C)(C)[C@@H](O[C@@H]6OC[C@@H](O)[C@H](O)[C@H]6O[C@@H]6O[C@H](C)[C@@H](O)[C@H](O)[C@H]6O)CC[C@]45C)[C@]2(C)CC[C@@H]31`, the IC50 in test [1] is 3.02 µM; in test [2] it was 2.12 µM; in test [3], 2.82 µM; in test [4] it was 2.97 µM; in test [5] it was 2.7 µM.

As for `C=C(C)C[C@@H](C[C@]1(C)OC(=O)[C@]23CC[C@H]4C(=CC[C@H]5C(C)(C)[C@@H](O[C@@H]6OC[C@@H](O)[C@H](O)[C@H]6O[C@@H]6OC[C@@H](O)[C@H](O)[C@H]6O)CC[C@]45C)[C@]2(C)CC[C@@H]31)OC(C)=O`, the IC50 is 3.13 µM in test [1]; 2.11 µM in test [2]; 2.36 µM in test [3]; 1.92 µM in test [4]; 2.27 µM in test [5].
